According to US20120252834A1 (priority 2009, published 2012):
Where two headings read alike, the source gives them in different places.

Experiments:
[1] = tested on: SEB-induced toxic shock in C3H/HeJ mice; conditions: mouse, in vivo
[2] = tested on: human PBMC stimulated with SEB; assay: cells; format: cell-based; conditions: for inhibition at 6.9 µg/mL: Homo sapiens, PBMC, 16 h
[3] = tested on: SEB-induced proliferation of T cells in PBMC; assay: cells; format: cell-based, human
[4] = tested on: SEA-, TSST-1-, SPEA-, and SPEC-stimulated human peripheral blood mononuclear cells; format: cell-based; conditions: rapamycin 1 μg/mL
[5] = tested on: serum MCP-1, IL-6 and IL-2 in SEB-treated mice; conditions: mouse, in vivo
[6] = tested on: lung MCP-1, IL-2 and IL-6 in SEB-exposed mice; conditions: mouse, in vivo
[7] = Determination of rapamycin in murine whole blood (HPLC, ion-trap MS); format: in vivo; conditions: mouse; for concentration at 1 h / concentration at 97 h: C3H/HeJ, whole blood; for concentration at 1 h: read-out: blood level of rapamycin
Procedure: Determination of rapamycin in murine whole blood. Blood was collected from rapamycin-treated mice (n=5) by retro-orbital bleeding into EDTA tubes 1 h after intranasal administration of rapamycin. Blood was centrifuged at 12000×g for 3 min to remove cells. Supernatants was removed and stored at −70° C. until analysis. Analysis of rapamycin was performed as previously described (23) using an Agilent Technologies series 1100 Capillary HPLC instrument and ion-trap mass spectrometer.

[8] = tested on: peripheral blood cells and splenocytes from mice treated with SEB; assay: Cellular apoptosis by JC-1 fluorescence (flow cytometry) in SEB-treated mice; format: in vivo, mouse; conditions: rapamycin 0.16 mg/kg i.n. at 17 h, cells taken 18 h after SEB
Procedure: Detection of cellular apoptosis by measuring fluorescence of mitochondrial J-aggregates. The loss of mitochondrial permeability, indicative of cellular apoptosis was detected by a fluorescent cationic dye, JC-1 (51). Briefly, peripheral blood or spleens were removed at 18 h from mice treated with SEB, SEB plus 0.16 mg/kg of intranasal rapamycin at 17 h after SEB exposure. Negative controls consisted of mice treated with DMSO at 17 h after saline. Red blood cells from peripheral blood and spleens were lyzed with FACS lyzing buffer (Becton Dickinson, Mountainview, Calif.) prior to staining with JC-1 dye according to manufacturer's instructions (Immunochemistry Technology, Bloomington, Minn.). Flow cytometer (Becton Dickinson) was used to measure cell fluorescence at 530 nm, which represents apoptotic cells.

[9] = cited from earlier work
PBMC = assay: Trypan Blue exclusion test on PBMC; conditions: data not shown

C[C@@H]1C[C@H]2[C@@H]3CCC4=CC(=O)C=C[C@]4(C)[C@@]3(F)[C@@H](O)C[C@]2(C)[C@@]1(O)C(=O)CO [dexamethasone]
lethality [1]: 90%

CO[C@H]1C[C@@H]2CC[C@@H](C)[C@@](O)(O2)C(=O)C(=O)N2CCCC[C@H]2C(=O)O[C@H]([C@H](C)C[C@@H]2CC[C@@H](O)[C@H](OC)C2)CC(=O)[C@H](C)/C=C(\C)[C@@H](O)[C@@H](OC)C(=O)[C@H](C)C[C@H](C)/C=C/C=C/C=C/1C [rapamycin]
suppression of IFNγ [2]: 36%
suppression of IL-2 [2]: 34%
inhibition at 6.9 µg/mL ([2]; read-out: inhibition of IL-1β production): 97%
inhibition at 6.9 µg/mL ([2]; read-out: inhibition of IL-2 production): 100%
inhibition at 6.9 µg/mL ([2]; read-out: inhibition of IL-6 production): 67%
inhibition at 6.9 µg/mL ([2]; read-out: inhibition of TNFα production): 77%
reduction of T cell proliferation [3]: 56%
inhibition at 6.9 µg/mL ([3]; Homo sapiens, T-cell, 48 h, read-out: inhibition of SEB-induced T cell proliferation (maximal)): 94%
reduction of superantigen-induced T cell proliferation ([4]; SEA-stimulated): 74%
reduction of superantigen-induced T cell proliferation ([4]; SPEA-stimulated): 68%
reduction of superantigen-induced T cell proliferation ([4]; SPEC-stimulated): 69%
reduction of superantigen-induced T cell proliferation ([4]; TSST-1-stimulated): 42%
effective in protecting mice from SEB-mediated shock [1]: 100%
protected [1]: 100%
protection [1]: 20%
weight gain [1]: 8-17%
reduction of peak serum IL-6 [5]: 80%
reduction of peak serum MCP-1 [5]: 90%
attenuation of lung IL-2 [6]: 80%
attenuation of lung IL-6 [6]: 65%
attenuation of lung MCP-1 [6]: 56%
concentration at 1 h ([7]; other: intranasal followed by intraperitoneal, 1 h after multiple dosing (2 i.n. doses plus 1 i.p. dose)): 692 ± 406 ng/mL
concentration at 97 h ([7]; other: intranasal followed by intraperitoneal, at 97 h, lower doses (0.03 mg/kg i.n. at 2 and 5 h, 0.08 mg/kg i.p. at 24, 48, 72 and 96 h)): 38 ± 15 ng/mL
concentration at 97 h ([7]; other: intranasal followed by intraperitoneal, at 97 h after multiple dosing (i.n. 0.7 mg/kg at 2 and 5 h, i.p. 1.6 mg/kg at 30, 48, 72 and 96 h)): 622 ± 282 ng/mL
concentration at 1 h ([7]; other: intranasal, 0.7 mg/kg, 1 h after an i.n. dose of 0.7 mg/kg): 492 ± 204 ng/mL
blood level of rapamycin ([7]; 1 h after an i.n. dose of 0.7 mg/kg, 0.7 mg/kg): 658 ± 408 ng/mL
decrease in number of apoptotic cells ([8]; mouse peripheral blood): 66%
decrease in number of apoptotic cells ([8]; mouse spleen): 74%
blood concentrations of rapamycin ([9]; healthy subjects, 1 h after 15 mg of rapamycin): 78.2 ± 18 ng/mL
blood levels of rapamycin ([9]; renal transplantation, 5 mg/day, at 1.8 h): 37.4 ± 21 ng/mL
cytotoxic effect (Trypan Blue exclusion) (PBMC): not due to cytotoxic effect
